Measurements reported in patent publication EP0132130A2, “Aroyl benzofuran and benzothiophene acetic and propionic acids processes for their production and pharmaceutical compositions containing them” (SYNTEX (U.S.A.) INC., priority 1983, dated 1985).

Assays:
[1] = test system: phenylquinone induced writhing; test: Screening test for analgetic activity: mouse analgetic (anti-writhing) assay (method of Hendershot & Forsaith); assay type: in vivo; settings: activity relative to aspirin = 1; oral by gavage, male Swiss-Webster mice, phenylquinone IP twenty minutes later
Method: Small animal screening tests to determine analgetic activity potential include the mouse analgetic (anti-writhing) assay according to the method of Hendershot and Forsaith, J. Pharmacol. Exp. Ther., 125:237-240, (1959).
The oral analgetic activity potential is determined utilizing the mouse analgetic (anti-writhing) assay in accordance with the method of Hendershot & Forsaith, J.Pharmacol.Exp.Ther., 125:237-240, (1959).
The test material is administered orally by gavage in an aqueous vehicle at time 0 to 18-20 gram male Swiss-Webster mice. Twenty minutes later 0.5 ml of a 0.02% solution of phenylquinone is injected IP. This solution induces writhing.
The total number of mice that writhe and the average number of writhes per mouse indicates the activity of the compound tested; the fewer writhes per mouse indicates a greater activity. Compounds of this invention show analgetic activity in this assay as illustrated in Table 2 below.

[2] = test system: carrageenin induced paw inflammation; test: Screening test for anti-inflammatory activity: carrageenin induced paw inflammation in the rat (method of Winter et al.); assay type: in vivo; settings: activity relative to phenylbutazone = 1; oral by gavage at hour 0, female rats, carrageenin at hour 1, paws weighed at hour 4
Method: Initial small animal screening tests to determine anti-inflammatory activity potential include the carrageenin induced paw inflammation in the rat according to the method of Winter, et al., Proc. Soc. Exp. Biol. Med., 111:544-547, (1962) and the cotton pellet granuloma test in the rat according to the method of Meier, et al Experientia 6:469-471, (1950) and modifications thereof. The oral anti-inflammatory activity is determined utilizing carrageenin induced paw inflammation in the rat in accordance with the method of Winter, et al., Pro.Soc.Exp.Biol.Med., III:544-547, (1962). Female rats weighing 80-90 grams are used. The test materials are given at hour 0 orally by gavage in 1 ml of aqueous vehicle. At hour 1, 0.05 ml of a 1% solution (in 0.9% NaCl) of carrageenin is injected into the right hind paw. This injection causes inflammation of the paw. The rats are sacrificed at hour 4, at which time both hind paws are removed and weighed separately. The percent increase in paw size is calculated as follows: • Wt. of right paw - Wt of left ^paw X 100 […] The smaller the percent increase in paw size, the lesser the degree of inflammation and the greater the anti-inflammatory activity. Compounds of this invention show anti-inflammatory activity in this test as illustrated in Table 1 below.

| SMILES | Analgesic Activity (Aspirin = 1) [1] | (Phenylbutazone = 1) Antiinflammatory Activity [2] |
| --- | --- | --- |
| CSc1ccc(C(=O)c2cc(C(C)C(=O)O)cc3ccoc23)cc1 (racemic) [d,l 2-(7-(4-methylthiobenzoyl)benzofuran-5-yl)-propionic acid] | 25 | 15 |
| CC(C(=O)O)c1cc(C(=O)c2ccccc2)c2occc2c1 (racemic) [d,l 2-(7-benzoylbenzofuran-5-yl)propionic acid] | 50 | 2 |
| CC(C(=O)O)c1cc(C(=O)c2ccc(Cl)cc2)c2occc2c1 (racemic) [d.1-2-(7-(4-chlorobenzoyl)benzofuran-5-yl)-propionic acid] | 35 | 4 |
| O=C(O)Cc1cc(C(=O)c2ccc(Cl)cc2)c2occc2c1 [7-(4-chlorobenzoyl)benzofuran-5-ylacetic acid] | 32 | 0.5 |
| O=C(O)Cc1cc(C(=O)c2ccc(Cl)cc2)c2sccc2c1 [7-(4-chlorobenzoyl)benzothiophen-5-ylacetic acid] | 7 | 1.5 |
| CSc1ccc(C(=O)c2cc(CC(=O)O)cc3ccoc23)cc1 [7-(4-methylthiobenzoyl)benzofuran-5-ylacetic acid] | 95 | 1.5 |
| O=C(O)Cc1cc(C(=O)c2ccccc2)c2occc2c1 [Ar=phenyl, R1=H, X1=O, X2=O, R2=H, R3=H, 7-benzoylbenzofuran-5-ylacetic acid] | 25 | 1 |
